# In patent publication EP4471048A1, “PEPTIDE INHIBITORS OF INTERLEUKIN-23 RECEPTOR” (Zealand Pharma A/S, priority 2023, dated 2024):
# *1 amine or outer side, *2 acyl side, *3 side chain or, on linkers, in order; H or OH if unused. Where a SMILES comes first, the peptide text is derived from it. Bridges are numbered along the chain shown (N, C = ends). [ ]: non-standard residue; d: D form. hAad = O=C([C@H](CCCCC(=O)[*:3])N[*:1])[*:2]; X17 = O=C(C[C@@H](CCCN[*:3])N[*:2])[*:1]; 2Nal = N[C@@H](Cc1ccc2ccccc2c1)C(=O)O; AEF = NCCOc1ccc(C[C@H](N)C(=O)O)cc1; 3Pal = N[C@@H](Cc1cccnc1)C(=O)O; Aad = N[C@@H](CCCC(=O)O)C(=O)O; αMeL = CC(C)C[C@](C)(N)C(=O)O; dOrn = NCCC[C@@H](N)C(=O)O; dDab = NCC[C@@H](N)C(=O)O; Dab = NCC[C@H](N)C(=O)O
# Target: T1, human IL-23R (Homo sapiens, UniProt Q5VWK5)
# T1 sequence (Q5VWK5 22-629): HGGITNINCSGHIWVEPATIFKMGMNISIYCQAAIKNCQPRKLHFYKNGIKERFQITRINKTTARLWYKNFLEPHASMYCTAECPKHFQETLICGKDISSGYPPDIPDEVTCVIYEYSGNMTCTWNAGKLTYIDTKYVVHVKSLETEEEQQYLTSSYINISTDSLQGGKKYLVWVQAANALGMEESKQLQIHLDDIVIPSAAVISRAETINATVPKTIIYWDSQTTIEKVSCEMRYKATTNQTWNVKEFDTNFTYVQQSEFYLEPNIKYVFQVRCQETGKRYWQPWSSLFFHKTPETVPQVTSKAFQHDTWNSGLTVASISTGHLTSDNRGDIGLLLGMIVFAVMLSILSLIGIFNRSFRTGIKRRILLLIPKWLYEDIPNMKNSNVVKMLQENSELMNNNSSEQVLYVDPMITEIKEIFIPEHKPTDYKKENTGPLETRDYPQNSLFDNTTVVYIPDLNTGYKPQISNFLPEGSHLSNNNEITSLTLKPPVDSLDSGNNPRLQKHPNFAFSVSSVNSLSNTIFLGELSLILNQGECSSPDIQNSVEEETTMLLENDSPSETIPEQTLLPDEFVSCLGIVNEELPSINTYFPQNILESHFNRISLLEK
# Assay: biochemical
# Details: for Emax: read-out: % displacement (hIL-23R NIuc)
# Description: The compound binding affinity for IL-23R was estimated by the ability of compounds to displace a fluorophore-labelled reference compound from the human IL-23R. The assay principle relies on Bioluminescence Resonance Energy Transfer (BRET) between a fluorophore-labelled reference compound binding to the IL-23R part of a fusion protein consisting of the IL-23R fused to a Nanoluc luciferase enzyme (Nanoluc). The Nanoluc is placed in the N-terminus in close proximity to the binding domain of the ligand. Upon close proximity between the fluorophore of the fluorophore-labelled compound and the Nanoluc of the fusion protein, bioluminescence energy generated from conversion of a Nanoluc substrate, is transferred to the fluorophore resulting in an increase in BRET. In presence of an unlabelled compound, the unlabelled compound displaces the fluorophore-labelled peptide from its binding site resulting in a decrease in BRET. The concentration for which half of the fluorophore-labelled peptide is displaced by the unlabelled compound depends on the affinity of the compound for the IL-23R, and is termed the IC50 concentration.
# The plasmid also contained a gene to confer resistance for the antibiotic hygromycin. A cell line stably expressing the Nluc-IL23R fusion protein was generated by transfection of HEK293 cells with the expression plasmid and selected with hygromycin for 3 weeks in Growth medium consisting of DMEM w/ Glutamax-I containing, 10% V/V FBS, 1% V/V P/S, 1 mM Sodium Pyruvate, and 1X NEAA, and 0.3 mg/mL hygromycin. The remaining cells were propagated and considered a stable expressing Nluc-IL23R fusion protein pool clone.
# Cells expressing the Nluc-IL23R fusion protein were expanded in Growth medium and membranes prepared by homogenization of a cell pellet from 18 T175 flasks (4 °C in subsequent steps). The cell pellet was lysed Tris 10 mM, 7.5, 1 mM EDTA and protease inhibitors (Complete, Roche) and homogenized using a 15 mL glass-dounce by 50 strokes. The homogenate was spun at spin @1500 rpm for 10 min, the supernatant transferred to SV-34 tubes and spun at 40000g for 20 min at 4 °C to pellet the crude membranes. The supernatant was then removed, the pellet resuspended in 5 mL buffer containing 50 mM HEPES pH 7.4, 5 mM EGTA, and 5 mM MgCl2, and homogenized. Aliquots of the resuspended and homogenized membranes containing the Nluc-IL23R fusion protein were stored at -80 °C until use.
# The plate was sealed with light impermeable plate seals, and incubated on an orbital shaker 400 rpm for 2 hours at room temperature. To determine the BRET ratio, the plate seal was removed and 25 µL of the Nanoluc substrate (Promega N1572) diluted 1:500 was added to each well and incubated for 1-2 minutes on an orbital shaker at 400 rpm. […] The BRET ratio was calculated as the fluorescence from the TAMRA/nanoluc bioluminescence.
# Compound potency (IC50) and maximal displacement (% displacement) were estimated by computer-aided curve fitting using a 4-parameter logistic (4PL) non-linear model. […]
# In this application, the inventors provide the data as IC50 values.
Compound,IC50 [nM],Emax [%],% displacement (hIL-23R NIuc) [%]
"CC(C)C[C@]1(C)NC(=O)[C@H](Cc2ccc3ccccc3c2)NC(=O)[C@H](Cc2ccc(OCCN)cc2)NC(=O)[C@@H]2CC(=O)N[C@H](CCCNC(=O)CCC[C@@H](C(=O)N[C@@H](CCN)C(=O)N[C@@H](Cc3cccnc3)C(N)=O)NC1=O)C(=O)N[C@@H]([C@@H](C)O)C(=O)N[C@@H](C(C)C)C(=O)N[C@@H](Cc1c[nH]c3ccccc13)C(=O)N[C@@H](CCC(N)=O)C(=O)N2 [Compound 8, [{d}Orn](1c)(6c)^†TVWQD(6c)[Y(2-aminoethoxy)][2-Nal][2-Me-Leu][hGlu](1c)[Dab][3-(3-Pyridyl)-Ala]-[NH2]] ([dOrn]TVWQD[AEF][2Nal][αMeL][Aad][Dab][3Pal]-NH2; lactam 1-10, N-6)",0.52,,
"CC(C)C[C@]1(C)NC(=O)[C@H](Cc2ccc3ccccc3c2)NC(=O)[C@H](Cc2ccc(OCCN)cc2)NC(=O)[C@@H]2CC(=O)N[C@H](CCNC(=O)CCCC[C@@H](C(=O)N[C@@H](CCN)C(=O)N[C@@H](Cc3cccnc3)C(N)=O)NC1=O)C(=O)N[C@@H]([C@@H](C)O)C(=O)N[C@@H](C(C)C)C(=O)N[C@@H](Cc1c[nH]c3ccccc13)C(=O)N[C@@H](CCC(N)=O)C(=O)N2 [Compound 9, [{d}Dab](1c)(6c)^†TVWQD(6c)[Y(2-aminoethoxy)][2-Nal][2-Me-Leu][2-Amino-6-carboxyhexanoyl](1 c)[Dab][3-(3-Pyridyl)-Ala]-[NH2]] ([dDab]TVWQD[AEF][2Nal][αMeL][hAad][Dab][3Pal]-NH2; lactam 1-10, N-6)",0.52,,103
"CC(C)C[C@]1(C)NC(=O)[C@H](Cc2ccc3ccccc3c2)NC(=O)[C@H](Cc2ccc(OCCN)cc2)NC(=O)[C@@H]2CC(=O)N[C@H](CCCNC(=O)CC[C@@H](C(=O)N[C@@H](CCN)C(=O)N[C@@H](Cc3cccnc3)C(N)=O)NC1=O)C(=O)N[C@@H]([C@@H](C)O)C(=O)N[C@@H](C(C)C)C(=O)N[C@@H](Cc1c[nH]c3ccccc13)C(=O)N[C@@H](CCC(N)=O)C(=O)N2 [Compound 10, [{d}Orn](1c)(6c)^†TVWQD(6c)[Y(2-aminoethoxy)][2-Nal][2-Me-Leu]E(1c)[Dab][3-(3-Pyridyl)-Ala]-[NH2]] ([dOrn]TVWQD[AEF][2Nal][αMeL]E[Dab][3Pal]-NH2; lactam 1-10, N-6)",0.67,107,
"CC(C)C[C@]1(C)NC(=O)[C@H](Cc2ccc3ccccc3c2)NC(=O)[C@H](Cc2ccc(OCCN)cc2)NC(=O)[C@@H]2CC(=O)N[C@H](CCNC(=O)CC[C@@H](C(=O)N[C@@H](CCN)C(=O)N[C@@H](Cc3cccnc3)C(N)=O)NC1=O)C(=O)N[C@@H]([C@@H](C)O)C(=O)N[C@@H](C(C)C)C(=O)N[C@@H](Cc1c[nH]c3ccccc13)C(=O)N[C@@H](CCC(N)=O)C(=O)N2 [Compound 11, [{d}Dab](1c)(6c)^†TVWQD(6c)[Y(2-aminoethoxy)][2-Nal][2-Me-Leu]E(1c)[Dab][3-(3-Pyridyl)-Ala]-[NH2]] ([dDab]TVWQD[AEF][2Nal][αMeL]E[Dab][3Pal]-NH2; lactam 1-10, N-6)",0.37,104,
"CC(C)C[C@]1(C)NC(=O)[C@H](Cc2ccc3ccccc3c2)NC(=O)[C@H](Cc2ccc(OCCN)cc2)NC(=O)[C@@H]2CC(=O)N[C@H](CCCNC(=O)CC[C@@H](C(=O)N[C@@H](CCN)C(=O)N[C@@H](Cc3cccnc3)C(N)=O)NC1=O)CC(=O)N[C@@H]([C@@H](C)O)C(=O)N[C@@H](Cc1c[nH]c3ccccc13)C(=O)N[C@@H](CCC(N)=O)C(=O)N2 [Compound 13, [{d}bLys](1c)(6c)^†TWQD(6c)[Y(2-aminoethoxy)][2-Nal][2-Me-Leu]E(1c)[Dab][3-(3-Pyridyl)-Ala]-[NH2]] (TWQD[AEF][2Nal][αMeL]E[Dab][3Pal]-NH2; linker N-4-8 via X17)",1.4,,101
"CC(C)C[C@]1(C)NC(=O)[C@H](Cc2ccc3ccccc3c2)NC(=O)[C@H](Cc2ccc(OCCN)cc2)NC(=O)[C@@H]2CCC(=O)N[C@H](CCCNC(=O)CC[C@@H](C(=O)N[C@@H](CCN)C(=O)N[C@@H](Cc3cccnc3)C(N)=O)NC1=O)CC(=O)N[C@@H]([C@@H](C)O)C(=O)N[C@@H](Cc1c[nH]c3ccccc13)C(=O)N[C@@H](CCC(N)=O)C(=O)N2 [Compound 14, [{d}bLys](1c)(6c)^†TWQE(6c)[Y(2-aminoethoxy)][2-Nal][2-Me-Leu]E(1c)[Dab][3-(3-Pyridyl)-Ala]-[NH2]] (TWQE[AEF][2Nal][αMeL]E[Dab][3Pal]-NH2; linker N-4-8 via X17)",0.44,101,
"CC(C)C[C@]1(C)NC(=O)[C@H](Cc2ccc3ccccc3c2)NC(=O)[C@H](Cc2ccc(OCCN)cc2)NC(=O)[C@@H]2CC(=O)N[C@H](CCNC(=O)CCCC[C@@H](C(=O)N[C@@H](CCN)C(=O)N[C@@H](Cc3cccnc3)C(N)=O)NC1=O)C(=O)N[C@@H]([C@@H](C)O)C(=O)N[C@@H](Cc1c[nH]c3ccccc13)C(=O)N[C@@H](CCC(N)=O)C(=O)N2 [Compound 15, [{d}Dab](1c)(6c)^†TWQD(6c)[Y(2-aminoethoxy)][2-Nal][2-Me-Leu][2-Amino-6-carboxyhexanoyl](1 c)[Dab][3-(3-Pyridyl)-Ala]-[NH2]] ([dDab]TWQD[AEF][2Nal][αMeL][hAad][Dab][3Pal]-NH2; lactam 1-9, N-5)",,105,

# The remaining lines, values ahead:
IC50 [nM],Emax [%],% displacement (hIL-23R NIuc) [%],Compound
0.029,102,,"CC(C)C[C@]1(C)NC(=O)[C@H](Cc2ccc3ccccc3c2)NC(=O)[C@H](Cc2ccc(OCCN)cc2)NC(=O)[C@@H]2CCC(=O)N[C@@H](CCCCCNC(=O)CC[C@@H](C(=O)N[C@@H](CCN)C(=O)N[C@@H](Cc3cccnc3)C(N)=O)NC1=O)C(=O)N[C@@H]([C@@H](C)O)C(=O)N[C@@H](C(C)C)C(=O)N[C@@H](Cc1c[nH]c3ccccc13)C(=O)N[C@@H](CCC(N)=O)C(=O)N2 [Compound 4, [hLys](1c)(6c)^†TVWQE(6c)[Y(2-aminoethoxy)][2-Nal][2-Me-Leu]E(1c)[Dab][3-(3-Pyridyl)-Ala]-[NH2]]"
0.037,98,,"CC(C)C[C@]1(C)NC(=O)[C@H](Cc2ccc3ccccc3c2)NC(=O)[C@H](Cc2ccc(OCCN)cc2)NC(=O)[C@@H]2CCC(=O)N[C@H](CCCCCNC(=O)CC[C@@H](C(=O)N[C@@H](CCN)C(=O)N[C@@H](Cc3cccnc3)C(N)=O)NC1=O)C(=O)N[C@@H]([C@@H](C)O)C(=O)N[C@@H](C(C)C)C(=O)N[C@@H](Cc1c[nH]c3ccccc13)C(=O)N[C@@H](CCC(N)=O)C(=O)N2 [Compound 5, [{d}hLys](1c)(6c)^†TVWQE(6c)[Y(2-aminoethoxy)][2-Nal][2-Me-Leu]E(1c)[Dab][3-(3-Pyridyl)-Ala]-[NH2]]"
0.099,101,,"CC[C@H](C)[C@@H]1NC(=O)[C@@H]2CCCCNC(=O)CC[C@@H](C(=O)N[C@@H](CCN)C(=O)N[C@@H](Cc3cccnc3)C(N)=O)NC(=O)[C@](C)(C(C)C)NC(=O)[C@H](Cc3ccc4ccccc4c3)NC(=O)[C@H](Cc3ccc(C)cc3)NC(=O)[C@H](CCC(=O)N2)NC(=O)[C@H](CCC(N)=O)NC(=O)[C@H](Cc2c[nH]c3ccccc23)NC(=O)[C@H](C(C)C)NC1=O [Compound 16, K(1c)(6c)^†IVWQE(6c)[F(4-Me)][2-Nal][2-Me-Val]E(1c)[Dab][3-(3-Pyridyl)-Ala]-[NH2]]"
